Calls of active or inactive are those of the source. No cut-off for these calls is given here.
Assays:
[1] = test system: Mus musculus; assay: Improvement in insulin resistance in C57BLKS/J-db/db mouse assessed as change in glucose level at 5 mg/kg/day dosed via oral gavage for 3 weeks by oral glucose tolerance test; type: functional, organism-based
[2] = test system: Mus musculus; assay: Reduction in hepatic triglyceride level in C57BLKS/J-db/db mouse at 5 mg/kg/day dosed via oral gavage for 4 weeks by colorimetric assay; type: functional, organism-based
[3] = test system: Mus musculus; assay: Effect on body weight in C57BLKS/J-db/db mouse at 5 mg/kg/day dosed via oral gavage for 30 days; type: ADME, organism-based; conditions: in vivo, 720 h
[4] = test system: Mus musculus; assay: Reduction in serum triglyceride level in C57BLKS/J-db/db mouse at 5 mg/kg/day dosed via oral gavage for 30 days by colorimetric assay; type: functional, organism-based
[5] = test system: Mus musculus; assay: Reduction in hepatic SREBP-1a mRNA expression in C57BLKS/J-db/db mouse at 5 mg/kg/day dosed via oral gavage for 4 weeks by qRT-PCR method; type: functional, organism-based
[6] = test system: Mus musculus; assay: Suppression of hepatic steatosis in C57BLKS/J-db/db mouse assessed as reduction in liver lipid droplets at 5 mg/kg/day dosed via oral gavage for 4 weeks by hematoxylin-eosin staining based assay; type: functional, organism-based
[7] = test system: Mus musculus; assay: Improvement in insulin resistance in C57BLKS/J-db/db mouse assessed as restoration of liver IRS1 Tyr465 phosphorylation at 5 mg/kg/day dosed via oral gavage for 3 weeks during oral glucose tolerance test by Western blot; type: functional, organism-based
[8] = test system: Mus musculus; assay: Reduction in hepatic FASN mRNA expression in C57BLKS/J-db/db mouse at 5 mg/kg/day dosed via oral gavage for 4 weeks by qRT-PCR method; type: functional, organism-based
[9] = test system: Mus musculus; assay: Reduction in hepatic SREBP-1c mRNA expression in C57BLKS/J-db/db mouse at 5 mg/kg/day dosed via oral gavage for 4 weeks by qRT-PCR method; type: functional, organism-based
[10] = test system: Mus musculus; assay: Improvement in insulin resistance in C57BLKS/J-db/db mouse assessed as reduction in serum insulin level at 5 mg/kg/day dosed via oral gavage for 3 weeks by oral glucose tolerance test; type: functional, organism-based
[11] = test system: Mus musculus; assay: Improvement in insulin resistance in C57BLKS/J-db/db mouse assessed as restoration of liver Akt Ser473 phosphorylation at 5 mg/kg/day dosed via oral gavage for 3 weeks during oral glucose tolerance test by Western blot; type: functional, organism-based
[12] = test system: Mus musculus; assay: Effect on beta-oxidation related gene expression in C57BLKS/J-db/db mouse assessed as ACOX1 mRNA expression at 5 mg/kg/day dosed via oral gavage for 4 weeks by qRT-PCR method; type: functional, organism-based
[13] = test system: Mus musculus; assay: Activation of SIRT1 in C57BLKS/J-db/db mouse assessed as reduction in p53 acetylation at 5 mg/kg/day dosed via oral gavage for 4 weeks by Western blot method; type: functional, organism-based
[14] = test system: Mus musculus; assay: Reduction in serum total cholesterol level in C57BLKS/J-db/db mouse at 5 mg/kg/day dosed via oral gavage for 30 days by colorimetric assay; type: functional, organism-based
[15] = test system: Mus musculus; assay: Effect on beta-oxidation related gene expression in C57BLKS/J-db/db mouse assessed as CPT1 mRNA expression at 5 mg/kg/day dosed via oral gavage for 4 weeks by qRT-PCR method; type: functional, organism-based
[16] = test system: Mus musculus; assay: Reduction in serum NEFA level in C57BLKS/J-db/db mouse at 5 mg/kg/day dosed via oral gavage for 30 days by colorimetric assay; type: functional, organism-based
[17] = test system: Mus musculus; assay: Effect on food intake in C57BLKS/J-db/db mouse at 5 mg/kg/day dosed via oral gavage for 30 days; type: ADME, organism-based; conditions: in vivo, 720 h
[18] = test system: Mus musculus; assay: Reduction in hepatic ACC mRNA expression in C57BLKS/J-db/db mouse at 5 mg/kg/day dosed via oral gavage for 4 weeks by qRT-PCR method; type: functional, organism-based
[19] = test system: Mus musculus; assay: Improvement in insulin resistance in C57BLKS/J-db/db mouse assessed as reduction in fasting serum glucose level at 5 mg/kg/day dosed via oral gavage for 3 weeks by oral glucose tolerance test; type: functional, organism-based
[20] = target: T1, NAD-dependent protein deacetylase sirtuin-1 (Homo sapiens) (UniProt Q96EB6); assay: Activation of SIRT1 (unknown origin) assessed as increase in NAD-dependent deacetylase activity using fluoro-substrate peptide by fluorometric assay relative to resveratrol
T1 sequence (whole entry): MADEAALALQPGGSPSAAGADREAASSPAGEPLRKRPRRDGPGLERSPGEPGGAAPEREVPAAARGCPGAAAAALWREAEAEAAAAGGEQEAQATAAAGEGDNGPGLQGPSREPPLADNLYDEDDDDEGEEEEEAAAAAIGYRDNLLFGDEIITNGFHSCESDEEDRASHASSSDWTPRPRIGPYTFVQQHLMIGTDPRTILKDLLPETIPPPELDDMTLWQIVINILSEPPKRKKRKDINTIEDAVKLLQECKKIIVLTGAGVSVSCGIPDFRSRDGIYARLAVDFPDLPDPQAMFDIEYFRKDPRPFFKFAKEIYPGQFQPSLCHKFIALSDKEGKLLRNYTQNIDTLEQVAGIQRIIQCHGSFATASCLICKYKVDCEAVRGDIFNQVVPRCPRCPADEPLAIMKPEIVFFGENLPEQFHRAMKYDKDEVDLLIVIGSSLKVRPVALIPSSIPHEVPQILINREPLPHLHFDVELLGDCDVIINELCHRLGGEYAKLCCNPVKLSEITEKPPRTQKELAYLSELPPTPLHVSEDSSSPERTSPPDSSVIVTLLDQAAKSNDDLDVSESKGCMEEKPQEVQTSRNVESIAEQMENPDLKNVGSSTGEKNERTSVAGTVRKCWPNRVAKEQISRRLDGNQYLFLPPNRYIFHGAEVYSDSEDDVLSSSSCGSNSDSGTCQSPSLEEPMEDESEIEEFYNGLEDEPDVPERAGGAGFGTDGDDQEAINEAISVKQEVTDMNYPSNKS

O=C(Nc1ccccc1-c1nc2cc(CN3CCN(C4CCCCC4)CC3)ccc2o1)c1ccc2ccccc2c1
Activity [1]: Active
Activity [2]: Active
Activity [3]: Non-Toxic
Activity [4]: Active
Activity [5]: Active
Activity [6]: Active
Activity [7]: Active
Activity [8]: Active
Activity [9]: Active
Activity [10]: Active
Activity [11]: Active
Activity [12]: inactive
Activity [13]: Active
Activity [14]: Active
Activity [15]: inactive
Activity [16]: Active
Activity [17]: Non-Toxic
Activity [18]: Active
Activity [19]: Active
fold change (FC) [20]: 1.5

— ChEMBL document CHEMBL4184254, “Novel SIRT1 activator MHY2233 improves glucose tolerance and reduces hepatic lipid accumulation in db/db mice” (Bioorg Med Chem Lett, 2018)
